Where “and” joins values, the source holds several entries; their conditions need not be identical. Equal entries are not always repeated.

Data set [1] is described as follows: Diffusivity by dynamic light scattering (DLS). It counts as physicochemical.
For data set [2] the following is noted: in vivo; cited from earlier work.
Data set [3] is described as follows: Absorption and fluorescence spectroscopy (plate reader / nanodrop). Format: physicochemical.
Data set [4] can be described thus: Xylenol orange determination of free Gd3+ after chelation. Format: physicochemical. How it is done: When xylenol orange coordinates Gd^3+ ion, absorption at 573 decreases relative to that at 433.
For determination of free Gd^3+ in solution after chelation. 3 mg xylenol orange was dissolved in 50 mM acetic acid pH 5.8, and 90 μL added to each well of a clear 96 well plate. Triplicate samples of 10 μL 10^−3M cs124-DTPA were added to each well, and increasing amounts of […] titrated in. Absorption was read at 573 and 433, against a standard of known Gd^3+ concentration.

The nature of data set [5]: Stability of the chelate in solution over time (Tb/Gd metal exchange). Format: physicochemical. The following applies: 5, 30, and 60 minutes. The text has this: To determine the stability of the chelate in solution as a function of time, readings were made at different time points. If there is an exchange of Tb with Gd on the sensitized chelate, then a dramatic increase in signal should be observed. The intensity of cs124-DTPA-Tb is 10000 fold higher than the equivalent concentration of cs124-DTPA-Gd.

For data set [6] the following is noted: mouse plasma, 0.1 mmol/kg via saphenous vein, bi-exponential fit.

In the case of `[Gd+3]` [Gd3+, reference compound], the “Diffusivity D” value in data set [1] is listed as 8.0 × 10^−6 cm^2/s. Moreover, the “Relaxivity r1” value in the data set “Relaxivity r1” turned out to be 9.16 ± 0.96 M⁻¹ ms⁻¹.

For `O=C([O-])CN(CCN(CC(=O)[O-])CC(=O)O)CCN(CC(=O)[O-])CC(=O)O.[Gd+3]` [Magnevist ®, gadolinium-diethylenetriaminepentaacetic acid], in “Relaxivity r1”, the “Relaxivity r1” value came to 3.4 M⁻¹ ms⁻¹. For the same molecule, in data set [2], the Distribution half-life was 12 min, the “Distribution time (manufacturer's data)” value is 12.2 ± 7.8 min, the “Elimination time (manufacturer's data)” value was 96.0 ± 7.8 min and the Plasma clearance half-life result was “approximately 81 min”.

Regarding “carbostyril-124-diethylenetriaminepentaacetic acid-Gadolinium [cs124-DTPA-Gd]”, in data set [1], the “Diffusivity D” value is listed as 2.5 × 10^−6 cm^2/s. In addition, in data set [3], the “Absorbance Amax” value came out at 328 nm, the “Fluorescence Emmax” value came to 375 nm and the “Fluorescence Exmax” value is on record as 341 nm. In the data set “Relaxivity r1”, the “Relaxivity compared with DTPA-Gd” value is recorded as “the same as that of DTPA-Gd” and the “Relaxivity r1” value was found to be 3.32 ± 1.4 M⁻¹ ms⁻¹. Also, the “Free Gd3+ ion concentration” value in data set [4] (incubated with 50 mM xylenol orange) came out at 0.06%. The “Concentration of chelated complex above which free Gd3+ is detectable” value in data set [4] (incubated with xylenol orange in 50 mM acetic acid pH 5.8) is “above 1.75 mM”. Further, the “Change of intensity over time (metal exchange between sensitized and unsensitized chelates)” value in data set [5] was “No significant change”. In addition, in data set [6], the Characteristic distribution time was 13.2 ± 0.543 min and 14 min; the Elimination time is 92.2 ± 11.7 min and 90 min.

As to `Cc1cc(=O)[nH]c2cc(N)ccc12` [cs124, carbostyril124, reference compound], in data set [3], the “Absorbance Amax” value is listed as 328 nm, the “Fluorescence Emmax” value stood at 370 nm and the “Fluorescence Exmax” value amounted to 310 nm.

These data come from patent US10908141B2, “Methods and kits for detecting non-luminescent or weakly luminescent metals” (New York University, priority 2012, dated 2021).
